Measured values taken from patent US20240342119A1, “COMPOSITION FOR TREATING HY[…] AND KELOIDS […] THI[…] AS ACTIVE INGREDIENT” (CEL[…]., priority 2021, published 2024).

System: hypertrophic scars in rabbit ears
Assay: rabbit ear hypertrophic scar model
Format: in vivo, New Zealand white rabbits
Conditions: 10% compound; for epidermal thickness of hypertrophic scar / scar elevation index (SEI) / collagen density (ratio of blue-stained area to total area): 0.5 mL applied daily for 14 days, compared to control and solvent-treated group; for epidermal thickness of hypertrophic scar: H&E, FIG. 9; for scar elevation index (SEI): FIG. 10; for collagen density (ratio of blue-stained area to total area): FIG. 11; for visual evaluation score of hypertrophic scar (dermatoscope, score 0-3 of Table 1): 0.5 mL applied daily, day 14, compared to control and solvent-treated group, FIG. 8
Source text: Eight female New Zealand white rabbits (2.6 to 3 kg) were anesthetized, and wounds were formed by removing the epidermis, dermis, and perichondrium of the ear skin of the rabbits using an 8 mm biopsy punch. Three wounds were formed in an ear area of each rabbit. The rabbit's surgical site was sterilized, and the formation of hypertrophic scars was induced through natural healing for 3 weeks.
After 3-week natural healing, the complete epithelialization and hypertrophic scar formation in scar areas were confirmed, and treatment was started for each test group. The test groups were classified into a normal group (normal tissue), a control (untreated scar/hypertrophic scar), test group 1 (solve application), test group 2 (CBM-N1 10%), test group 3 (CBM-N3 10%), test group 4 (CBM-N 10%), and test group 5 (CBM-N 10%).
Each test group was treated by applying 0.5 mL of drug daily for 2 weeks (14 days), and then a tissue autopsy was performed. The biopsied tissue was stored in a 10% formalin solution to form a tissue slide. The effectiveness of hypertrophic scar treatment was confirmed through dermatoscopy and histological evaluation.
The skin tissue areas of the control and test groups were observed using a dermatoscope on the start day and end day (Day 14 of treatment) of treatment, and depending on the degree of hypertrophic scar formation, scores were given for visual evaluation as shown in Table 1 below.
A paraffin block of the fixed ear tissue of a rabbit was prepared, and sliced to a thickness of 3 μm, thereby preparing a tissue slide. Following hydration, staining was performed using hematoxylin and eosin solutions. The stained tissue slides were photographed using a 200× microscope, and epithelial thicknesses were measured using ZEISS ZEN Microscope Software.
The fixed ear tissue of a rabbit was stained with a hematoxylin or eosin solution in the same manner as in the epidermal thickness analysis method, and the stained tissue slide was photographed at 50× magnification. Using ZEISS ZEN Microscope Software, the length from the epidermis to the cartilage was measured for the scar area and normal area, and the scar evaluation index (SEI) was calculated from the results. Here, the SEI is the value calculated by dividing ‘the length from the epidermis to the cartilage at the thickest point in the scar area’ by ‘the length from the epidermis to the cartilage in the normal skin area.’
A paraffin block of the fixed ear tissue of a rabbit was prepared, and sliced to a thickness of 3 μm, thereby preparing a tissue slide. Following hydration, staining was performed using Biebrich Scarlet-Acid Fuchsin solution for 5 minutes, and washing was performed and then staining was performed again with phosphotungstic acid/phosphomolybdic acid for 5 minutes.
Subsequently, staining was performed with aniline blue and an acetic acid solution, and the stained tissue slides were photographed at 400× magnification. In the photographs that were taken, the ratio of the blue-stained area, that is, the area occupied by collagen, to the total area was analyzed using Image J (The National Institutes of Health, USA).

SMILES | epidermal thickness of hypertrophic scar | scar elevation index (SEI) | collagen density (ratio of blue-stained area to total area) | visual evaluation score of hypertrophic scar (dermatoscope, score 0-3 of Table 1)
NC(=O)C[S+]([O-])C(c1ccccc1)c1ccccc1 (stereo not shown) [CBM-N1, 2-(benzhydrylsulfinyl)acetamide, reference compound] | thin epidermal thicknesses | lower SEI values | lower collagen densities | much lower
O=C(CSC(c1ccccc1)c1ccccc1)Nc1ccccc1 [CBM-N3, 2-(benzhydrylthio)-N-phenylacetamide] | thin epidermal thicknesses | lower SEI values | lower collagen densities | much lower
O=C(C[S+]([O-])C(c1ccccc1)c1ccccc1)NCC1CCCO1 (stereo not shown) [CBM-N5, 2-(benzhydrylsulfinyl)-N-[(tetrahydrofuran-2-yl)methyl]acetamide] | thin epidermal thicknesses | lower SEI values | lower collagen densities | much lower
NC(=O)C[S+]([O-])C(c1ccc(F)cc1)c1ccc(F)cc1 (stereo not shown) [CBM-N9, 2-[bis(4-fluorophenyl)methanesulfinyl]acetamide] | thin epidermal thicknesses | lower SEI values | lower collagen densities | much lower
